Test results published in patent US20210127671A1, “HYPERSENSITIVE RESPONSE ELICITOR PEPTIDES AND USE THEREOF” (priority 2015, published 2021).
Where two headings read alike, the source gives them in different places. Peptide text beside a SMILES is read from it.

How the values were obtained:
[1] = Stability against chemical degradation in water or pH buffers at 50° C. (HPLC); conditions: for precipitation during stability test: 0.2% AI, 0.25% Proxel GXL, 50 mM buffers; for precipitation during stability test / stability after 14 days: 50° C.; for solution stability (in words): aqueous solution; for % remaining after 14 days incubation: 50 mM TES, pH 8.0, 50° C.; for stability after 14 days: 50 mM EDTA, pH 8 (FIG. 24)
Protocol: Briefly, the stability and resistance to chemical degradation of peptides can be assessed as follows using peptide samples having an initial purity of at least about 80%, at least about 82%, at least about 84%, at least about 86%, at least about 88%, at least about 90%, at least about 92%, at least about 94%, at least about 96%, or at least about 98%. For water stability, the peptide is dissolved directly in de-ionized water. For chemical degradation tests, the peptide is dissolved in an aqueous solution containing 50 mM pH buffer and 0.25% Proxel GXL. Exemplary pH buffers include, without limitation: (i) Citrate pH 5.6; (ii) MES pH 6.2; (iii) MOPS pH 6.5; (iv) imidazole pH 7.0; (v) Citrate pH 7.2; (vi) EDDS, pH 7.3; (vii) EDTA pH 8.0; (viii) sodium phosphate pH 8.0; or (ix) TES pH 8.0. Peptides are first dissolved in the aqueous solution at a concentration of 0.5 mg/ml. […] An initial sample of the peptide is removed, diluted 10× with water, and analyzed by reverse-phase HPLC. Briefly, 20 μl of the sample is injected into the solvent flow of an HPLC instrument and analyzed on a C18 HPLC column (YMC ProPack C18, YMC, Japan, or C18 Stablebond, Agilent Technologies, USA) using either a triethylamine phosphate in water/acetonitrile gradient or a 0.1% TFA in water/0.1% TFA in acetonitrile gradient to separate different peptide species. Eluting peptides are monitored by UV absorbance at 218 nm and quantified based on the area under the peak. The area under the peak for the initial peptide sample is treated as the standard for relative quantification in subsequent runs. At regular intervals (e.g., 1, 3, 7, 10, 14, 17, and 21 days), each peptide sample is surveyed and analyzed by HPLC as described above.
Stability against chemical degradation was assessed in various pH buffers by creating 0.2% AI solutions of pure, chemically synthesized peptide in deionized water, 0.25% weight to volume of Proxel® GXL (biocide), and 50 millimolar (mM) of eight buffers (separately) as follows: MES pH 5.6, MOPS pH 6.5, Citrate pH 7.2, EDDS pH 7.3, EDTA pH 8, Phosphate pH 8, Imidazole pH 8, and TES pH 8.

[2] = 0.2% AI in deionized water, 48 hours at room temperature

Compound: CC[C@H](C)[C@H](NC(=O)CNC(=O)[C@H](CCC(=O)O)NC(=O)[C@@H](N)CC(N)=O)C(=O)N[C@@H](CO)C(=O)N[C@@H](CCC(=O)O)C(=O)N[C@@H](CCCCN)C(=O)N[C@@H](CCC(=O)O)C(=O)N[C@@H](CC(C)C)C(=O)N[C@@H](CC(=O)O)C(=O)N[C@@H](CCC(=O)O)C(=O)N[C@@H](CC(C)C)C(=O)N[C@@H](CC(C)C)C(=O)N[C@H](C(=O)N[C@@H](CCC(=O)O)C(=O)N[C@@H](CC(C)C)C(=O)N[C@H](C(=O)N[C@@H](CCC(=O)O)C(=O)N[C@@H](C)C(=O)N[C@@H](CC(C)C)C(=O)N[C@@H](CC(C)C)C(=O)N[C@@H](CCC(N)=O)C(=O)N[C@@H](CCC(N)=O)C(=O)O)[C@@H](C)CC)[C@@H](C)O [P1-2E,8E,11E,15E,18E] (H-NEGISEKELDELLTELIEALLQQ-OH; N-terminus and C-terminus assumed)
- precipitation during stability test [1]: remained in solution
- solution stability (in words) [1]: improved solubility and stability when compared with P1
- solubility [2]: soluble

Compound: CC[C@H](C)[C@H](NC(=O)CNC(=O)[C@H](CCC(N)=O)NC(=O)[C@@H](N)CC(N)=O)C(=O)N[C@@H](CO)C(=O)N[C@@H](CCC(=O)O)C(=O)N[C@@H](CCCCN)C(=O)N[C@@H](CCC(N)=O)C(=O)N[C@@H](CC(C)C)C(=O)N[C@@H](CC(=O)O)C(=O)N[C@@H](CCC(N)=O)C(=O)N[C@@H](CC(C)C)C(=O)N[C@@H](CC(C)C)C(=O)N[C@H](C(=O)N[C@@H](CCC(N)=O)C(=O)N[C@@H](CC(C)C)C(=O)N[C@H](C(=O)N[C@@H](C)C(=O)N[C@@H](C)C(=O)N[C@@H](CC(C)C)C(=O)N[C@@H](CC(C)C)C(=O)N[C@@H](CCC(N)=O)C(=O)N[C@@H](CCC(N)=O)C(=O)O)[C@@H](C)CC)[C@@H](C)O [Peptide P1-18A] (H-NQGISEKQLDQLLTQLIAALLQQ-OH; N-terminus and C-terminus assumed)
- % remaining after 14 days incubation [1]: 47%

Compound: CC[C@H](C)[C@H](NC(=O)CNC(=O)[C@H](CCC(N)=O)NC(=O)[C@@H](N)CC(N)=O)C(=O)N[C@@H](CO)C(=O)N[C@@H](CCC(=O)O)C(=O)N[C@@H](CCCCN)C(=O)N[C@@H](CCC(N)=O)C(=O)N[C@@H](CC(C)C)C(=O)N[C@@H](CC(=O)O)C(=O)N[C@@H](CCC(N)=O)C(=O)N[C@@H](CC(C)C)C(=O)N[C@@H](CC(C)C)C(=O)N[C@H](C(=O)N[C@@H](CCC(N)=O)C(=O)N[C@@H](CC(C)C)C(=O)N[C@H](C(=O)N[C@@H](CCCCN)C(=O)N[C@@H](C)C(=O)N[C@@H](CC(C)C)C(=O)N[C@@H](CC(C)C)C(=O)N[C@@H](CCC(N)=O)C(=O)N[C@@H](CCC(N)=O)C(=O)O)[C@@H](C)CC)[C@@H](C)O [Peptide P1-18K] (H-NQGISEKQLDQLLTQLIKALLQQ-OH; N-terminus and C-terminus assumed)
- % remaining after 14 days incubation [1]: 58%
- solubility: ≥ 20 mg/mL

Compound: CC[C@H](C)[C@H](NC(=O)CNC(=O)[C@H](CCC(N)=O)NC(=O)[C@@H](N)CC(N)=O)C(=O)N[C@@H](CO)C(=O)N[C@@H](CCC(=O)O)C(=O)N[C@@H](CCCCN)C(=O)N[C@@H](CCC(N)=O)C(=O)N[C@@H](CC(C)C)C(=O)N[C@@H](CC(=O)O)C(=O)N[C@@H](CCC(N)=O)C(=O)N[C@@H](CC(C)C)C(=O)N[C@@H](CC(C)C)C(=O)N[C@H](C(=O)N[C@@H](CCC(N)=O)C(=O)N[C@@H](CC(C)C)C(=O)N[C@H](C(=O)N[C@H](C(=O)N[C@@H](C)C(=O)N[C@@H](CC(C)C)C(=O)N[C@@H](CC(C)C)C(=O)N[C@@H](CCC(N)=O)C(=O)N[C@@H](CCC(N)=O)C(=O)O)[C@@H](C)O)[C@@H](C)CC)[C@@H](C)O [Peptide P1-18T] (H-NQGISEKQLDQLLTQLITALLQQ-OH; N-terminus and C-terminus assumed)
- % remaining after 14 days incubation [1]: 71%

Compound: CC[C@H](C)[C@H](NC(=O)CNC(=O)[C@H](CCC(N)=O)NC(=O)[C@@H](N)CO)C(=O)N[C@@H](CO)C(=O)N[C@@H](CCC(=O)O)C(=O)N[C@@H](CCCCN)C(=O)N[C@@H](CCC(N)=O)C(=O)N[C@@H](CC(C)C)C(=O)N[C@@H](CC(=O)O)C(=O)N[C@@H](CCC(N)=O)C(=O)N[C@@H](CC(C)C)C(=O)N[C@@H](CC(C)C)C(=O)N[C@@H](CO)C(=O)N[C@@H](CCC(N)=O)C(=O)N[C@@H](CC(C)C)C(=O)N[C@H](C(=O)N[C@@H](CCC(N)=O)C(=O)N[C@@H](C)C(=O)N[C@@H](CC(C)C)C(=O)N[C@@H](CC(C)C)C(=O)N[C@@H](CCC(N)=O)C(=O)N1CCC[C@H]1C(=O)O)[C@@H](C)CC [Peptide P4-14S] (H-SQGISEKQLDQLLSQLIQALLQP-OH; N-terminus and C-terminus assumed)
- precipitation during stability test [1]: remained in solution
- solution stability (in words) [1]: highly stable peptide
- solubility [2]: completely soluble

Compound: CC[C@H](C)[C@H](NC(=O)[C@@H](NC(=O)[C@H](CCC(N)=O)NC(=O)[C@H](CCCNC(=N)N)NC(=O)[C@H](CC(=O)O)NC(=O)[C@@H](NC(=O)[C@@H]1CCCN1C(=O)[C@H](CCC(N)=O)NC(=O)[C@@H](N)CCC(N)=O)[C@@H](C)CC)[C@@H](C)O)C(=O)N[C@@H](CCC(=O)O)C(=O)N[C@@H](CCC(N)=O)C(=O)N[C@@H](CCSC)C(=O)N[C@@H](C)C(=O)N[C@@H](CCC(N)=O)C(=O)N[C@@H](CC(C)C)C(=O)N[C@@H](CC(C)C)C(=O)N[C@@H](C)C(=O)N[C@@H](CCC(N)=O)C(=O)N[C@@H](CC(C)C)C(=O)N[C@@H](CC(C)C)C(=O)N[C@@H](CCCCN)C(=O)N[C@@H](CO)C(=O)N[C@@H](CC(C)C)C(=O)N[C@@H](CC(C)C)C(=O)O [Peptide P18-1] (H-QQPIDRQTIEQMAQLLAQLLKSLL-OH)
- stability after 14 days [1]: > 90%

Compound: CC[C@H](C)[C@H](NC(=O)[C@@H](NC(=O)[C@H](CCC(N)=O)NC(=O)[C@H](CCCNC(=N)N)NC(=O)[C@@H](N)CC(=O)O)[C@@H](C)O)C(=O)N[C@@H](CCC(=O)O)C(=O)N[C@@H](CCC(N)=O)C(=O)N[C@@H](CC(C)C)C(=O)N[C@@H](C)C(=O)N[C@@H](CCC(N)=O)C(=O)N[C@@H](CC(C)C)C(=O)N[C@@H](CC(C)C)C(=O)N[C@@H](C)C(=O)N[C@@H](CCC(N)=O)C(=O)N[C@@H](CC(C)C)C(=O)N[C@@H](CC(C)C)C(=O)N[C@@H](CCCCN)C(=O)N[C@@H](CO)C(=O)N[C@@H](CC(C)C)C(=O)N[C@@H](CC(C)C)C(=O)N[C@@H](CO)C(=O)N1CCC[C@H]1C(=O)O [Peptide P18-4] (H-DRQTIEQLAQLLAQLLKSLLSP-OH)
- stability after 14 days [1]: 60%

Compound: CC[C@H](C)[C@H](N)C(=O)N[C@H](C(=O)N1CCC[C@H]1C(=O)N[C@@H](CC(=O)O)C(=O)NCC(=O)N[C@@H](CCC(N)=O)C(=O)NCC(=O)NCC(=O)NCC(=O)N[C@@H](CCC(N)=O)C(=O)N[C@H](C(=O)NCC(=O)N[C@@H](CC(=O)O)C(=O)N[C@@H](CC(N)=O)C(=O)N1CCC[C@H]1C(=O)N[C@@H](CC(C)C)C(=O)N[C@@H](CC(C)C)C(=O)N[C@@H](CCCCN)C(=O)N[C@@H](C)C(=O)N[C@@H](CC(C)C)C(=O)N[C@@H](CC(C)C)C(=O)N[C@@H](CCCCN)C(=O)N[C@@H](CC(C)C)C(=O)N[C@H](C(=O)N[C@@H](C)C(=O)O)[C@@H](C)CC)[C@@H](C)CC)[C@@H](C)O [Peptide P19-20L] (H-ITPDGQGGGQIGDNPLLKALLKLIA-OH; N-terminus and C-terminus assumed)
- stability compared with P19 (in words) ([1]; 50 mM citrate pH 7.2 or 50 mM TES, pH 8.0): modest increase in stability

Compound: CC[C@H](C)[C@H](N)C(=O)N[C@H](C(=O)N1CCC[C@H]1C(=O)N[C@@H](CC(=O)O)C(=O)NCC(=O)N[C@@H](CCC(N)=O)C(=O)NCC(=O)NCC(=O)NCC(=O)N[C@@H](CCC(N)=O)C(=O)N[C@H](C(=O)NCC(=O)N[C@@H](CC(=O)O)C(=O)N[C@@H](CC(N)=O)C(=O)N1CCC[C@H]1C(=O)N[C@@H](CC(C)C)C(=O)N[C@@H](CC(C)C)C(=O)N[C@@H](CCCCN)C(=O)N[C@@H](C)C(=O)N[C@@H](CCSC)C(=O)N[C@@H](CC(C)C)C(=O)N[C@@H](CCCCN)C(=O)N[C@@H](CC(C)C)C(=O)N[C@H](C(=O)N[C@@H](C)C(=O)O)[C@@H](C)CC)[C@@H](C)CC)[C@@H](C)O [Peptide P19] (H-ITPDGQGGGQIGDNPLLKAMLKLIA-OH; N-terminus and C-terminus assumed)
- remaining at 336 h ([1]; buffer or solvent): 52%
